Measurements published in patent US5225436A, “Aryl substituted naphthalene derivatives” (Schering Corporation, priority 1991, dated 1993).
Where two headings read alike, the source gives them in different places.

Columns and labels:
Format in all cases: cell-based
5-lipoxygenase [1] = biological target: T1, 5-lipoxygenase (Mus musculus, UniProt P48999); experiment: 5-Lipoxygenase assay (murine mast cell clone MC-9); details: MC9, 5 min, MC-9 cell
T1 construct: The IL-3-dependent murine mast cell clone, MC-9, was used to test the effects; endogenous in cells; host or cells: MC-9 (IL-3-dependent murine mast cell clone)
T1 sequence (P48999 1-674): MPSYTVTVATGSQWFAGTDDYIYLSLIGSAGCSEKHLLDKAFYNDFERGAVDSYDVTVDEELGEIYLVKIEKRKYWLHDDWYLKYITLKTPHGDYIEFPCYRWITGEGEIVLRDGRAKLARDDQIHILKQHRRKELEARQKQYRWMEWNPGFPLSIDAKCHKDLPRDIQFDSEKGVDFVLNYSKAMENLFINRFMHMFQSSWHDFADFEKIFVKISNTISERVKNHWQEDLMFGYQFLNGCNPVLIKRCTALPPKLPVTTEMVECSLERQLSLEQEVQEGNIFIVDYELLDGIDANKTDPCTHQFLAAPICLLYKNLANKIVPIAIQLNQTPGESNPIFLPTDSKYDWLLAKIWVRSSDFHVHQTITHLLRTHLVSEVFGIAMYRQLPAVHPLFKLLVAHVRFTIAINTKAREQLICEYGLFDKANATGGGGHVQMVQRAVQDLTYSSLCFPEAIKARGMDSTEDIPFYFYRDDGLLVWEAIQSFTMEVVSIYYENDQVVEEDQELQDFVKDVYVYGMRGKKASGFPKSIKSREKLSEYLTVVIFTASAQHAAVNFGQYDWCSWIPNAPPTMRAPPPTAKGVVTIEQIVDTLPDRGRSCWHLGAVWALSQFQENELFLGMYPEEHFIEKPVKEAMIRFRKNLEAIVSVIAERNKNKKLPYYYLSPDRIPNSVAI
Experimental: The IL-3-dependent murine mast cell clone, MC-9, was used to test the effects of representative compounds of the invention on lipoxygenase activity. The MC-9 cell line was grown in suspension culture (0.4 to 1.2×10^6 cells/ml) in RPMI 1640 medium (Gibco) with 10% fetal bovine serum (Hyclone) and 2-5% conconavalin-A conditioned supernatant (Musch et. al., (1985) Prostagandins 29, 405-4307. Cells were harvested, washed twice by centrifugation, and resuspended in a Ca^++ -free HEPES buffer (25 mM HEPES, 125 mM NaCl, 2.5 mM KCl 0.7 mM MgCl2, 0.5 mM EGTA and 10 mM glucose at pH 7.4).
MC-9 cells (0.39 ml at 7.5×10^6 cells/ml) were preincubated with dimethylsulfoxide (DMSO) vehicle with or without test compound (1 ul) for 4 minutes then incubated for 5 minutes with [^14 C] arachidonic acid (Amersham, 59 Ci/mole) at a 9 uM final concentration, and A23187 (Calbiochem) at a 1 uM final concentration was added in 10 ul of water:ethanol (9:1). The reaction was stopped by addition of methanol (0.4 ml), and cellular debris was removed by centrifugation. Aliquots (250 ul) of the incubations were run on a Waters two pump HPLC system fitted with a Waters C18, 10 u 8×100 mm u-Bondapak radial compression column and C18 "Guard Pak". The column was initially eluted at 3 ml/min with water:methanol:acetic acid (67:33:0.08) containing 1 mM EDTA adjusted to pH 6.0 with ammonium hydroxide (Pump A). At 4 minutes, a linear gradient to reach 100% methanol (Pump B) at 9 minutes was established. Between 13 and 14 minutes, methanol was exchanged for the initial eluting solvent and by 19 minutes the column had been reequilibrated for the next sample. The effluent was analyzed by a continuous flow radioactivity monitor (model ROMONA-D) interfaced with a Hewlett Packard Lab Automation System for quantitation of radioactive products. These were predominantly leukotriene C4 (LTC4) which eluted at 6 minutes, and 5-hydroxyeicosatetraenoic acid (5-HETE) which eluted at 11 minutes (Musch et. al., supra).

[2] = tested on: SRS-A / leukotriene release from antigen-challenged, sensitized guinea pig lung; experiment: Inhibition of SRS-A (leukotriene) release from antigen-challenged, sensitized guinea pig lung; set-up: inhibition: dose or concentration left out as unconfirmed; details: Cavia porcellus; for inhibition: Dose 30 μm (μM)
Text: The anti-allergy method of this invention is identified by tests which measure a compound's inhibition of leukotriene release in sensitized guinea pigs. Sensitized guinea pigs are killed by a blow to the head and the lungs removed and cleaned of visible connective tissue, trachea and large blood vessels. The lungs from individual animals are sliced into fragments approximately 1 mm in thickness using a McIlwain tissue chopper and then washed with oxygenated Tyrode's buffer. Weighed aliquots (approximately 400 mg wet weight) of lung are transferred into vials containing 2 ml of fresh Tyrode's solution (containing 10 mM cysteine) and incubated in the presence or absence of test compound for 12 min at 37° C. The tissues are then challenged with 20 μg ovalbumin/ml (final concentration) and incubated for 15 min. To measure leukotriene release, an aliquot of supernatant fluid is extracted with 4 volumes of 100% ethanol. After removal of the precipitated protein, the clear fluid is dried under a stream of N2 gas. The leukotriene content is measured by a radioimmunoassay using [^3 H]LTC4 and antiserum obtained from New England Nuclear. The cross-reactivity of the antiserum for LTD4 is 55%. Percent inhibition of lekotriene release is calculated by comparing for each lung the release in the presence of the test compound to that in the absence of test compound. Representative compounds of the invention at a relative dose of 50 μM of tissue are found to inhibit leukotriene release in the test procedure as indicated below in Table 1: […]

5-lipoxygenase [3] = biological target: T2, 5-lipoxygenase (Homo sapiens, UniProt P09917); experiment: 5-Lipoxygenase assay with human neutrophils; details: 5 min, Human PMN, dose 15 μm (μM)
T2 construct: Human polymorphonuclear leukocytes (neutrophils) were obtained from normal healthy volunteers; endogenous in cells; host or cells: human blood neutrophils from healthy volunteers
T2 sequence (P09917 1-674): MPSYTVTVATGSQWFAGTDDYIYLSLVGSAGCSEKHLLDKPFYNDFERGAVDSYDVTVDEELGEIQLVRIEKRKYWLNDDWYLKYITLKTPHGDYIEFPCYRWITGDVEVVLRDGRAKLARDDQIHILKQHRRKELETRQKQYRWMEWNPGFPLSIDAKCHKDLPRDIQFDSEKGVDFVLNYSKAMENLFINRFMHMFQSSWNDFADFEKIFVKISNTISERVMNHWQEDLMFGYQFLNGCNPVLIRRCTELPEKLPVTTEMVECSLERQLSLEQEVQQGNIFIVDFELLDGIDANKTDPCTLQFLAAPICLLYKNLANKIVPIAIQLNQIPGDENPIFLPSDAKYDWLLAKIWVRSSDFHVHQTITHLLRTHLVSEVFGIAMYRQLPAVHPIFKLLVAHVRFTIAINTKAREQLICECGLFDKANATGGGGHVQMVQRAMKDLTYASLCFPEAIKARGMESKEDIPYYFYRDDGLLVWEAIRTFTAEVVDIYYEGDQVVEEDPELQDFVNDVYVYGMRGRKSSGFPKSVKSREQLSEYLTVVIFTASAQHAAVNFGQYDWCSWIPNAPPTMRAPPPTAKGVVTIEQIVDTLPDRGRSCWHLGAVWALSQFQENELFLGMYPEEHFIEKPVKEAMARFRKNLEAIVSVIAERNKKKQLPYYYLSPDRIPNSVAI
Experimental: Human polymorphonuclear leukocytes (neutrophils) were obtained from normal healthy volunteers by venipuncture and collected with heparin anticoagulant. Neutrophils were isolated by Dextran/Ficol sedimentation as described (Billah et al., J. Biol. Chem. 260, 6899-6906 (1985)). In brief, 30 ml of blood was mixed with 5 ml of dextran (Sigma) solution and kept at 37° C. for 30 min. The upper white cell-rich layer was removed and 10 ml was layered on 9 ml of Ficol-Paque solution (Pharmacia) and centrifuged at 280 xg for 10 min. at 5° C. The supernatant was removed and the neutrophil pellet was resuspended in HEPES buffer containing 25 mM N-2-hydroxyethylpiperazine-N^1 -2-ethanesulfonic acid HEPES, 125 mM NaCl, 2.5 mM KCl, 0.7 mM MgCl2, […] 10 mM glucose at pH 7.4. The red cells in the suspension were lysed by hypotonic shock. The neutrophils were washed by centrifugation in HEPES buffer two times and finally resuspended at a concentration of 20×10^6 cells/ml in the presence of 1 mM CaCl2.
Neutrophils (0.2 ml of suspension) were preincubated with dimethylsulfoxide (DMSO) vehicle with or without test compound (1 ul) for 4 minutes then incubated for 5 minutes with [^14 C] arachidonic acid (Amersham, 59 Ci/mole) at a 9 uM final concentration, and the calcium ionophore A23187 (Calbiochem) at a 1 uM final concentration. These stimulants were added in 10 ul of water:ethanol (9:1). The reaction was stopped by addition of methanol (0.4 ml), and cellular debris was removed by centrifugation. Aliquots (100 ul) of the incubations were run on a Waters two pump HPLC system fitted with a DuPont Zorbax ODS, 5u, […] Reliance Cartridge column and C18 "Guard Pak". The column was initially eluted at 2 ml/min with 80% of the mixture water:methanol:acetic acid (46:54:0.08) containing 1 mM EDTA adjusted to pH 6.0 with ammonium hydroxide (Pump A) and 20% methanol (Pump B). At 10 minutes, a linear gradient to reach 100% methanol (Pump B) at 27 minutes was established. Between 27 and 28 minutes, methanol was exchanged for the initial eluting solvent and by 35 minutes the column had been reequilibrated for the next sample. The effluent was analyzed by a continuous flow radioactivity monitor (model ROMONA-D) interfaced with a Hewlett Packard Lab Automation System for quantitation of radioactive products. These were predominantly leukotriene B4 (LTB4) which eluted at 7 minutes, and 5-hydroxyeicosatetraenoic acid (5-HETE) which eluted at 20 minutes.

Row | inhibition at 15 µM (5-lipoxygenase [3]; read-out: % Inhibition 5-HETE) | inhibition at 15 µM (5-lipoxygenase [3]; read-out: % Inhibition LTB) | Compound | inhibition [2] | also measured
1 | – | – | COc1cc(OC)c2c(c1)C(C)(C)C(c1ccc(OC)c(OC)c1)CC2O (stereo not drawn) | – | inhibition at 5 µM (5-lipoxygenase [1]; read-out: % Inhibition 5-HETE): 5%; inhibition at 5 µM (5-lipoxygenase [1]; read-out: % Inhibition LTC4): 32%
2 | – | – | COc1cc(OC)c2c(c1)C(C)(C)C(c1ccc(OC)c(OC)c1)CC2 (stereo not drawn) | – | inhibition at 50 µM [2]: 5%; inhibition at 5 µM (5-lipoxygenase [1]; read-out: % Inhibition 5-HETE): 35%; inhibition at 5 µM (5-lipoxygenase [1]; read-out: % Inhibition LTC4): 53%
3 | 54% | – | COc1cc(OC)c2c(c1)C(C)(C)C(c1ccc(OC)c(OC)c1)CC(C)(C)C2=O (stereo not drawn) [drawing 90 [X=O; W=CH3; J=CH3]] | 25% | –
4 | 74% | – | CON=C1CC(c2ccc(OC)c(OC)c2)C(C)(C)c2cc(OC)ccc21 (stereo not drawn) | 0% | –
5 | 42% | – | COc1ccc2c(c1)C(C)(C)C(c1ccc(OC)c(OC)c1)CC2=O (stereo not drawn) | 28% | –
6 | 0% | 4% | COc1cc(OC)c2c(c1)C(C)(C)C(c1ccc(OC)c(OC)c1)CC2NC(C)=O (stereo not drawn) | 11% | –
7 | – | – | CC1(C)c2cc(O)cc(O)c2C(=O)CC1c1ccc(O)c(O)c1 (stereo not drawn) [drawing 79 [R3/R4=O; E,G,P,L=OH; J=H; db no]] | – | inhibition at 50 µM [2]: 67%; inhibition at 2 µM (5-lipoxygenase [1]; dose 2 μm, read-out: % Inhibition 5-HETE): 0%
8 | 0% | 0% | COc1ccc(C2CC(=O)c3c(cc(OC)c(OC)c3OC)C2(C)C)cc1OC (stereo not drawn) [3-(3,4-dimethoxyphenyl)-3,4-dihydro-6,7,8-trimethoxy-4,4-dimethyl-1(2H)naphthalenone] | – | inhibition at 10 µM [2]: 1%
9 | 31% | – | COc1cc(OC)c2c(c1)C(C)(C)C(c1ccc(OC)c(OC)c1)C(C)C2=NO (stereo not drawn) | – | inhibition at 10 µM [2]: 13%
10 | – | – | COc1cc(OC)c2c(c1)C(C)(C)C(c1ccc(OC)c(OC)c1)CC2(C)O (stereo not drawn) | – | inhibition at 5 µM (5-lipoxygenase [1]; read-out: % Inhibition 5-HETE): 0%; inhibition at 5 µM (5-lipoxygenase [1]; read-out: % Inhibition LTC4): 8%
11 | 16% | 0% | COc1cc(OC)c2c(c1)C(C)(C)C(c1ccc(OC)c(OC)c1)C(C=O)C2=O (stereo not drawn) | 19% | –
12 | 0% | 0% | COc1cc(OC)c2c(c1)C(C)(C)C(c1ccc(OC)c(OC)c1)CC2N (stereo not drawn) | 0% | –
13 | 0% | 0% | COc1cc(OC)c2c(c1)C(C)(C)C(c1ccccc1)CC2=O (stereo not drawn) | – | inhibition at 10 µM [2]: 6%
14 | – | – | CC1(C)c2cc(O)cc(O)c2CCC1c1ccc(O)c(O)c1 (stereo not drawn) | – | inhibition at 10 µM [2]: 16%; inhibition at 5 µM (5-lipoxygenase [1]; read-out: % Inhibition 5-HETE): 55%; inhibition at 5 µM (5-lipoxygenase [1]; read-out: % Inhibition LTC4): 52%
15 | – | – | COc1cc(OC)c2c(c1)C(C)(C)C(c1ccc(OC)c(OC)c1)=C(O)C2=O | – | inhibition at 50 µM [2]: 24%
